Measured values from patent US8906953B2, “Pyrrolidine substitute flavones for the treatment of inflammatory disorders” (Piramal Enterprises Limited, priority 2010, dated 2014).

Tests used:
[1] = test system: IκBα; test: TNFα-induced IκBα phosphorylation and degradation, western blot in Jurkat cells; type: cell-based, human; settings: 0.1 μM, 0.1 nM TNF-α 0-90 minutes
Procedure: The method for IκBα degradation was designed as in reference, The Journal of Immunology, 1999, 103, 6800-6809, the disclosure of which is also incorporated by reference for the teaching of the assay.
(§1) Human Jurkat T-cells from American Type Culture Collection (ATCC) were cultivated in Rosewell Park Memorial Institute (RPMI) medium supplemented with 10% fetal bovine serum (FBS), penicillin (100 U/mL) and streptomycin (100 μg/mL) at 37° C. in humidified atmosphere of 95% air-5% CO2. Culture medium was changed every 2-3 days and always 24 hours before harvest. RPMI medium, FBS, CellLytic, anti-β-actin, sodium orthovanadate and anisomycin were purchased from Sigma-Aldrich (USA). TNF-α was purchased from R & D Systems (USA). Complete Protease inhibitor cocktail was procured from Roche.
(§2) Jurkat cells were preincubated with vehicle or the compound of example 3 (0.1 μM) for 1 hour in a 37° C., CO2 incubator. For MAPK experiments, the cells were stimulated with anisomycin (10 μg/mL) for 30 minutes. SB 203580 was used as a standard (1 μM). For studies pertaining to degradation of IκBα and IκBα (phospho) the cells were stimulated with 0.1 nM TNF-α for 0, 5, 15, 30, 60 and 90 minutes. […] Aliquots of the resulting extracts were analyzed for their protein content using the Coomassie Plus Protein Assay Reagent (Pierce) following manufacturer's instructions. […]

[2] = test system: TNF-α; test: Spontaneous TNF-α release from synovial cells of RA patients; type: cell-based; settings: Homo sapiens, Synovial cell, freshly isolated synovial cells from RA patients, 16 hours
Procedure: Cytokine production in synovial cells obtained from rheumatoid arthritis patients undergoing knee replacement surgery, was measured as per the method described in reference, Lancet, 1989, 29, 244-247, the disclosure of which is incorporated herein by reference for the teaching of the assay. The synovial membrane tissue was digested by incubating at 37° C. for 3 hours in an atmosphere of 5% CO2, in Roswell Park Memorial Institute (RPMI) medium containing penicillin-G (100 U/mL), streptomycin (100 μg/mL), amphotericin B (50 ng/mL) (GIBCO), 1.33 mg/mL collagenase Type I (Worthington Biochemical Corporation, New Jersey, USA), 0.5 μg/mL DNAse Type I (SIGMA) and 8.33 U/mL heparin (Biological E. Limited, India). The digested tissue was then filtered through a membrane (mesh size 70 micron) (SIGMA), the cells were washed 3 times and suspended in complete medium (RPMI supplemented with 5% FCS and 5% human serum). The cell concentration was adjusted to 1×10^6 cells/mL. The viability as determined by trypan blue dye exclusion was uniform Ly≧98%. The cell suspension (100 μL) was added to the wells of a 96-well culture plate. […] The final concentration of DMSO was adjusted to 0.5%. The vehicle (0.5° A) DMSO) was used as control. SB 203580 (20 μM) was used as a standard. The plates were incubated for 16 hours at 37° C. in 5% CO2 atmosphere. […]

[3] = target: T1, p38 MAP kinase (Homo sapiens, UniProt Q16539); test: p38 MAP kinase inhibition, western blot in anisomycin-stimulated Jurkat cells; type: cell-based; settings: 0.1 μM, anisomycin 10 μg/mL 30 minutes
T1 construct: endogenous in cells; host or cells: Jurkat T-cells (ATCC)
Procedure: The method for identifying inhibitors of p38 mitogen-activated protein (MAP) Kinase was designed as in reference, Journal of Lipid Research, 1999, 40, 1911-1919, the disclosure of which is incorporated herein by reference for the teaching of the assay.
as §1
as §2, with “μM).” for “μM). For studies pertaining to degradation of IκBα and IκBα (phospho) the cells were stimulated with 0.1 nM TNF-α for 0, 5, 15, 30, 60 and 90 minutes.”

T1 sequence (Q16539 whole entry): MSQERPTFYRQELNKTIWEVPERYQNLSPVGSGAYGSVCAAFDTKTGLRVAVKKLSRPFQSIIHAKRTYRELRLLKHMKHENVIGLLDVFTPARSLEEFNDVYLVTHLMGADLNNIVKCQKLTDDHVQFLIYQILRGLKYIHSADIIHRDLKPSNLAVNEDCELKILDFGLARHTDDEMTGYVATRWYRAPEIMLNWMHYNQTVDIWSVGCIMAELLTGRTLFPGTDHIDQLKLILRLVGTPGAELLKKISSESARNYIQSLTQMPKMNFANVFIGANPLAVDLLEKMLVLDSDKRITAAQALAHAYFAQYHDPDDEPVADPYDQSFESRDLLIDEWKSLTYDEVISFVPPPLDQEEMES

CN1CC[C@@H](c2c(O)cc(O)c3c(=O)cc(-c4ccc(C(F)(F)F)cc4Cl)oc23)[C@@H]1CO.Cl [Compound of example 3, (+)-trans-2-(2-Chloro-4-trifluoromethyl-phenyl)-5,7-dihydroxy-8-(2-hydroxymethyl-1-methyl-pyrrolidin-3-yl)-chromen-4-one hydrochloride]
TNFα-induced IkBα phosphorylation and degradation (western blot) [1]: blocks TNFα-induced IkBα phosphorylation and degradation | IC50 [2]: 20 µM | p38 MAP kinase inhibition (western blot) [3]: not an inhibitor of p38 MAP kinase
